Laboratory results as given in US10426815B2, “Prevention and treatment of itch with an MRGPR antagonist” (THE GENERAL HOSPITAL CORPORATION, priority 2015, dated 2019).
Ends that are not written are not given here.

Experiments:
[1] = target: T1, MrgX1 (human MRGPRX1) (Homo sapiens, UniProt Q96LB2); assay: Calcium imaging of cells transfected with the GPCR (Table 1); assay type: cell-based; details: SP 10 μM (FIG. 9); chloroquine 100 μM (FIG. 7c)
T1 construct: expressed in transfected cells; host or cells: HeLa cells, pcDNA3.1(-)
T1 sequence (Q96LB2 whole entry): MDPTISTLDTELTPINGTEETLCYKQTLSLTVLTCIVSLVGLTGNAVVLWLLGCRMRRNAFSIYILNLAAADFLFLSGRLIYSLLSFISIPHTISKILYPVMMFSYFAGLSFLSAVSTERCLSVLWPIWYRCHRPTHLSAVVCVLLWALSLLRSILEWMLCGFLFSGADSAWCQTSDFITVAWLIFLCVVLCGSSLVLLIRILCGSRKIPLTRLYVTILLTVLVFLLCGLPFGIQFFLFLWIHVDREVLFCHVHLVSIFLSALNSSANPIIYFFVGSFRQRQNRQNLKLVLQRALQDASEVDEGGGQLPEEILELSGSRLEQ
Method: (§1) Human NK1 cDNA was obtained from LIFE Technologies, PCR cloned with Xho I-Hind III ends and cloned into pcDNA3.1(−). Mouse NK2 and NK3 expression-ready vectors were obtained from […] (Piscataway, N.J.). All other Mrgprs (human MRGPRX1, human MRGPRX2, human MRGPRX3, human MRGPRX4, mouse MrgprA2a, mouse MrgprA2b, mouse MrgprA3, mouse MrgprA4, mouse MrgprA9, mouse MrgprA10, mouse MrgprB4 and mouse MrgprB5) were cloned by PCR from genomic DNAs and inserted into pcDNA3.1 (−).
(§2) 10 μg of expression vector (human MRGPRX2, mouse MrgprA1 or NK1) and 10 μl of LIPOFECTAMINE 2000 transfection reagent were diluted into 0.5 ml of DMEM and separately left at room temperature (RT) for 5 min. They were then mixed and incubated at RT for 20 minutes prior to being added to HeLa cells. HeLa cells were grown to confluence, trypsinized and 1×10^6 cells were pelleted in a 15 ml tube by centrifugation at 1000 rpm for 5 minutes. The DMEM-LIPOFECTAMINE 2000-DNA mixture (1 ml) was then added to the cell pellet, suspended and incubated at RT for 5 minutes. 2 ml of complete DMEM with 10% FBS without antibiotics were added to the tube, mixed by inverting the tube, plated into a 96-well glass bottom plate at 50,000 cells/well, and placed in a 37° C. CO2 incubator for 3 hours. HeLa cells transfected with salmon sperm DNA were plated as a control. The medium was changed after 3 hours and left in the incubator. 24 hours after transfection, the medium in the wells was removed and 100 μl of complete DMEM containing 2 μM of FURA-2 were added to each well and left at room temperature in the dark for 1 hr.
(§3) Calcium imaging was performed immediately after loading cells with Fura-2, using a ZEISS Axiovert 200M microscope platform equipped with a flipping filter wheel for ratiometric imaging. Axiovision software, version 4.6 was used for calcium image analysis of the cells excited at 340 nm and 380 nm. Agonists were added at 15 seconds after the start of the excitation procedure. Antagonists were added five minutes before imaging with the agonists. Images were taken every 5 seconds, including at zero time, during a 90 second period or longer if required. The software later analyzed all images taken during each excitation period. Ratiometric changes were measured in 10-20 cells in each individual experiment. An average of the fluorescence of the cells in each image was calculated and plotted against time in seconds.

[2] = target: T2, MrgA3 (mouse MrgprA3) (Mus musculus, UniProt Q91WW3); assay: as above; assay type: cell-based; details: chloroquine 100 μM (FIG. 7c)
T2 construct: expressed in transfected cells; host or cells: HeLa cells, pcDNA3.1(-)
T2 sequence (Q91WW3 1-302): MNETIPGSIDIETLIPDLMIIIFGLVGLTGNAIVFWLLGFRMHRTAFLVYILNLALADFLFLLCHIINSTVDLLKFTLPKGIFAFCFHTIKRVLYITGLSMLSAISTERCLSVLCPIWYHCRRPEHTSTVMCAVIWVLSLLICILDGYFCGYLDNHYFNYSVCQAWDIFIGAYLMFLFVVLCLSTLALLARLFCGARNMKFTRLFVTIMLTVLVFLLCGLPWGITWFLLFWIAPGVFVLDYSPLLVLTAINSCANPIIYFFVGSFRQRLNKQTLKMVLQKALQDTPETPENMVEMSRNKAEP
Method: as §1, §2, §3

[3] = system: mice (itch, scratching bouts); assay: Mouse cheek model, scratching bouts; assay type: in vivo; details: intradermal injection into the cheek, 10 μl
Method: The mouse cheek model was used to evaluate scratching behavior in Mrgpr cluster Δ−/− and NK1−/− mice. Mice used for behavioral studies were 2 to 3 months old, 20-30 g. Mice were habituated for 30 minutes/day for 3 days prior and for 15 minutes on the day of the study. 10 μl of each compound were delivered by a 31G needle to the cheek. The mice were not shaved prior to injections to avoid irritation. All experiments were performed at consistent times during the day (9:00 am to 2:00 pm) and under the same conditions and in groups of at least 7 mice. The mice were videotaped in a soundproof environment minimize distraction. Recordings were scored for the number of scratching bouts that occur over 1 minute intervals during 25 minute observation periods and the investigator was not aware of the group allocation during scoring the study and behavioral analysis. A scratching bout was initiated by lifting of the hind paw to the area of injection, and ended by returning of the hind paw to the floor or to the mouth. […]
For behavioral studies, average numbers of scratching bouts were compared across groups using one-way ANOVA. Pair-wise comparisons were performed using student t test after correcting p values for multiple comparisons using the Bonferroni procedure. For DRG studies and mast cell degranulation studies, unpaired student t-test was used. Differences were considered to be statistically significant for P<0.05. Data analysis was performed using PRISM 6.

Compound | activation of human MRGPRX1 by the substance (in words) [1] | activation of mouse MrgprA3 by the substance (in words) [2] | provocation of itch (scratching bouts) by the injected substance, WT mice [3]
CCN(CC)CCCC(C)Nc1ccnc2cc(Cl)ccc12 (stereo not shown) [Chloroquine, chloroquine] | activates | activates | 
LL-37: antimicrobial peptide that activates MRGPRX2 |  |  | don't cause itch
PAMP: PAMP peptide of the behavioral studies, length not stated (ARLDVASEFRKKWNKWALSR; ends and bridges not checked; UniProt P35318 22-41, looked up) |  |  | don't cause itch
